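Growth conditions: 96-well plates. Treatment: test compound, 48 hours, 5 concentrations. Analysis: linear interpolation between bracketing concentrations; unreached endpoints set to highest concentration. TGI is the concentration that stops growth completely.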
What was measured:
Experiment in all cases: NCI anticancer screen, dose series, 48 h
SF-539 CNS = test system: SF-539 CNS
MDA-N = test system: MDA-N
OVCAR-8 ovarian = test system: OVCAR-8 ovarian
MDA-MB-435 = test system: MDA-MB-435
UACC-257 melanoma = test system: UACC-257 melanoma
SR leukemia = test system: SR leukemia
SW-620 colon = test system: SW-620 colon
MCF7 breast = test system: MCF7 breast
ACHN renal = test system: ACHN renal
NCI-H460 lung = test system: NCI-H460 lung
U251 CNS = test system: U251 CNS

Row | Structure (SMILES) | TGI (SF-539 CNS) [µM] | TGI (MDA-N) [µM] | TGI (OVCAR-8 ovarian) [µM] | TGI (MDA-MB-435) [µM] | TGI (UACC-257 melanoma) [µM] | TGI (SR leukemia) [µM] | TGI (SW-620 colon) [µM] | TGI (MCF7 breast) [µM] | TGI (ACHN renal) [µM] | TGI (NCI-H460 lung) [µM] | TGI (U251 CNS) [µM]
1 | CCOC(=O)c1nc2ccc(C(F)(F)F)cc2nc1NCc1cc(OC)c(OC)c(OC)c1 | > 100 | 76 | > 100 | > 100 | > 100 | 48.5 | > 100 | > 100 | > 100 |  | 
2 | CC(=O)OC(/C=C/c1ccccc1)=C(OC(C)C)/C1=C(\c2ccccc2)SCCCSC1=O | > 100 |  | > 100 | > 100 | > 100 |  | > 100 | > 100 | > 100 | > 100 | > 100
3 | CC1OC(OC2C(O[C@H]3CC[C@@]4(C)C(=CC[C@H]5[C@@H]6C[C@@H]7O[C@]8(CC[C@@H](CO)CO8)[C@@H](C)[C@@H]7[C@@]6(C)CC[C@@H]54)C3)OC(CO)C(O)C2OC2OC(CO)C(O)C(O)C2O)C(O)C(O)C1O (some centres undefined) | 3.07 | 3.06 | 3.46 | 3.48 | 3.24 |  | 3.54 | 3.15 | 3.25 | 3.18 | 3.22
4 | C=CCCN1CCc2c([nH]c3ccccc23)C1C(=O)O (centres undefined) | > 100 |  |  |  | > 100 | > 100 | > 100 |  | > 100 | > 100 | > 100
5 | O=P(Nc1ccc(Cl)cc1)(Oc1ccccc1)N(CCCl)CCCl (centres undefined) | > 100 |  | > 100 |  | > 100 | > 100 | > 100 |  | > 100 |  | > 100
6 | NC(N)=NCCC[C@H](N)C(=O)NCC(=O)N[C@@H](CC(=O)O)c1ncc(NC(=O)C(F)(F)F)o1 | > 25 |  | > 25 | > 25 | > 25 |  | > 25 | > 25 | > 25 | > 25 | > 25
7 | O=C1C=CC[C@H]2O[C@@H](COC(=O)Cc3ccccc3)C[C@H]2O1 | > 100 | > 100 | 77.9 | > 100 | > 100 | > 100 | > 100 | > 100 | > 100 | > 100 | 
8 | NN/C(=N\S(=O)(=O)c1cc2ccccc2s1)Nc1ccc(Cl)cc1 | 29.8 |  | 47.9 |  | 37.3 | 73.9 | 54.9 | 42.4 | 54.4 | 39.6 | 34.5
9 | CCOC(=O)CNc1c(OCc2ccccc2)c(=O)c1=O |  | > 100 | > 100 | > 100 | > 100 | > 100 | > 100 | > 100 | > 100 |  | > 100
10 | CCOc1cn(C2CC(O)C(CO)O2)c(=O)[nH]c1=O (centres undefined) |  | > 100 |  | > 100 | > 100 |  | > 100 | > 100 | > 100 | > 100 | > 100
11 | Oc1ccc(-c2nc(-c3cccnc3)c(-c3ccc(Cl)cc3)[nH]2)cc1 |  | 26.3 | 28.4 | 25.5 | 29.6 | 44.1 | 29.9 | 24.7 | 27.6 | 24 | 28.5
12 | O=Cc1c(C(=O)O)[nH]c(=O)[nH]c1=O | > 100 | > 100 | > 100 | > 100 | > 100 |  | > 100 |  | > 100 | > 100 | > 100
13 | O=C(O)c1ccc([N+](=O)[O-])c2cc3cnccc3nc12 |  | 51.3 | 48.9 | > 100 |  | > 100 |  | 38.7 |  | > 100 | 35.6
14 | OCC(O)COCn1nncc1Cn1ncc2c(SCc3ccccc3)ncnc21 (centres undefined) | > 100 | > 100 | > 100 | > 100 | > 100 |  | > 100 | > 100 | > 100 |  | > 100
15 | CC1=NNC(N)=N/C1=C\C(Sc1ccc(Cl)cc1)c1ccc([N+](=O)[O-])cc1 (centres undefined) |  | > 100 | > 100 | > 100 | > 100 | > 100 | > 100 | > 100 | > 100 | > 100 | > 100
16 | Cc1cccc(N=NC(=O)NNc2cccc(C)c2C)c1C |  | > 100 | > 100 | 64.9 | > 100 | > 100 | > 100 |  | 95.7 | > 100 | > 100
17 | Oc1c(CN2CCOCC2)ccc2cccnc12 | > 10 | > 10 | > 10 | > 10 | > 10 |  | > 10 | > 10 | > 10 | > 10 | > 10
18 | CC12C(=O)CC(CC1=O)C2(C)C |  | > 100 | > 100 |  | > 100 |  | > 100 | > 100 | > 100 | > 100 | 
19 | O=C1C=C(C2=CC(=O)C(=O)c3ccccc32)c2ccccc2C1=O | 82.4 |  | 75.7 |  | > 100 |  | 31.4 | 48.3 | > 100 |  | > 100
20 | N#CC(NC12CC3CC(CC(C3)C1)C2)c1ccccc1C(F)(F)F (centres undefined) | > 100 |  | > 100 |  |  | > 100 | > 100 |  | > 100 | > 100 | 
21 | NC(N)=N/N=C/c1c[nH]c2ccccc12 | > 100 |  | > 100 |  | > 100 | > 100 | > 100 |  | > 100 | > 100 | > 100
22 | COCN(CCC1=CCCCC1)C(=O)OC |  | > 100 | > 100 | > 100 | > 100 | > 100 | > 100 | > 100 | > 100 | > 100 | > 100
